Results from ChEMBL document CHEMBL1201862, “PubChem BioAssay data set” (2004).
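Tested at 5 concentrations; 48 h exposure; 96-well plates; endpoints linearly interpolated, else capped at highest concentration. At the GI50, growth is halved.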 Active and inactive are the calls of the source. Cut-off read from the data, not from the text of the source: active = GI50 up to about 1.1 µM and inactive = higher.

Columns and labels:
Experiment in all cases: DTP human tumour cell line panel, 48 h
[1] = system: CAKI-1
[2] = system: COLO 205
[3] = system: DMS-114
[4] = system: HCT-116
[5] = system: HL-60
[6] = system: Hs-578T
[7] = system: KM-20L2
[8] = system: KM12
[9] = system: LOX IMVI
[10] = system: LXFL 529
[11] = system: MDA-N
[12] = system: NCI-H460
[13] = system: PC-3
[14] = system: RPMI-8226
[15] = system: SF-268
[16] = system: SF-539
[17] = system: SW-620
[18] = system: U-251
[19] = system: UACC-257
[20] = system: UACC-62

Measured: GI50

CCC1CN2CCc3cc(OC)c(OC)cc3C2CC1CC1c2cc(OC)c(OC)cc2CCN1C(=O)C(Cc1c[nH]c2ccccc12)NC(=O)OC(C)(C)C (centres undefined)
inactive: [1] 6.84 µM | [2] 1.57 µM | [3] 1.38 µM | [4] 1.6 µM | [5] 2.03 µM | [6] 2.08 µM | [7] 1.87 µM | [8] 2.83 µM | [9] 1.88 µM | [10] 3.94 µM | [11] 1.97 µM | [12] 2.39 µM | [13] 3.12 µM | [14] 2.52 µM | [15] 5.4 µM | [16] 2.34 µM | [17] 2.82 µM | [18] 2.57 µM | [19] 2.71 µM | [20] 5.64 µM

N#CC(C#N)SCc1ccccc1
inactive: [1] 17.7 µM | [2] 15.6 µM | [3] 24.4 µM | [4] 6.55 µM | [5] 4.44 µM | [6] 26.5 µM | [7] 32.3 µM | [8] 19.7 µM | [9] 5.11 µM | [10] 33.7 µM | [11] 1.63 µM | [12] 14.7 µM | [13] 2.79 µM | [14] 6.18 µM | [15] 29.4 µM | [16] 5.19 µM | [17] 4.59 µM | [18] 19.5 µM | [19] 23.1 µM | [20] 34.4 µM

CC1=CC2CC(C)C1(C)CCc1ccoc12 (centres undefined)
inactive: [1] > 100 µM | [2] > 100 µM | [3] > 100 µM | [4] > 100 µM | [5] > 100 µM | [7] > 100 µM | [8] > 100 µM | [9] > 100 µM | [10] > 100 µM | [12] > 100 µM | [14] > 100 µM | [15] > 100 µM | [16] > 100 µM | [17] > 100 µM | [18] > 100 µM | [19] > 100 µM | [20] > 100 µM

O=C(O)C1c2ccccc2C(C(=O)O)c2ccccc21 (centres undefined)
inactive: [1] > 100 µM | [2] > 100 µM | [3] > 100 µM | [4] > 100 µM | [5] > 100 µM | [7] > 100 µM | [8] > 100 µM | [9] > 100 µM | [10] > 100 µM | [12] > 100 µM | [14] > 100 µM | [15] > 100 µM | [16] > 100 µM | [17] > 100 µM | [18] > 100 µM | [19] > 100 µM | [20] > 100 µM
